According to patent US8754069B2, “Betulinic acid derivatives with antiviral activity” (priority 2011, dated 2014):

test system: recombinant NL4-3 virus (NLRluc, Renilla luciferase in nef, Gag P373S) in MT-2 cells; test: HIV Cell Culture Assay (luciferase reporter virus in MT-2 cells); format: cell-based; settings: NL43, 96 h, read-out: 10% FBS (EC50, uM)
Experimental: HIV Cell Culture Assay—MT-2 cells and 293T cells were obtained from the NIH AIDS Research and Reference Reagent Program. MT-2 cells were propagated in RPMI 1640 media supplemented with 10% heat inactivated fetal bovine serum, […]. The 293T cells were propagated in DMEM media supplemented with 10% heat inactivated fetal bovine serum (FBS), 100 units/ml penicillin G and 100 μg/ml streptomycin. The proviral DNA clone of NL4-3 was obtained from the NIH AIDS Research and Reference Reagent Program. A recombinant NL4-3 virus, in which a section of the nef gene from NL4-3 was replaced with the Renilla luciferase gene, was used as a reference virus. In addition, residue Gag P373 was converted to P373S. Briefly, the recombinant virus was prepared by transfection of the altered proviral clone of NL4-3. Transfections were performed in 293T cells using LipofectAMINE PLUS from Invitrogen (Carlsbad, Calif.), according to manufacturer's instruction. The virus was titered in MT-2 cells using luciferase enzyme activity as a marker. Luciferase was quantitated using the Dual Luciferase kit from Promega (Madison, Wis.), with modifications to the manufacturer's protocol. The diluted Passive Lysis solution was pre-mixed with the re-suspended Luciferase Assay Reagent and the re-suspended Stop & Glo Substrate (2:1:1 ratio). Fifty (50) μL of the mixture was added to each aspirated well on assay plates and luciferase activity was measured immediately on a Wallac TriLux (Perkin-Elmer). Antiviral activities of inhibitors toward the recombinant virus were quantified by measuring luciferase activity in cells infected for 4-days with NLRluc recombinants in the presence serial dilutions of the inhibitor. Table 1 is the key for the data in Table 2. Results

Structure (SMILES) | EC50
C=C(C)[C@@H]1CC[C@]2(NCCN3CCS(=O)(=O)CC3)CC[C@]3(C)[C@H](CC[C@@H]4[C@@]5(C)CC[C@H](OC(=O)C(C)(C)CC(=O)O)C(C)(C)[C@@H]5CC[C@]43C)[C@@H]12 [Example 1, 4-(((1R,3aS,5aR,5bR,7aR,9S,11aR,13aR,13bR)-3a-((2-(1,1-dioxido-4-thiomorpholinyl)ethyl)amino)-1-isopropenyl-5a,5b,8,8,11a-pentamethylicosahydro-1H-cyclopenta[a]chrysen-9-yl)oxy)-3,3-dimethyl-4-oxobutanoic acid] | < 0.1 µM
C=C(C)[C@@H]1CC[C@]2(NCCN3CCS(=O)(=O)CC3)CC[C@]3(C)[C@H](CC[C@@H]4[C@@]5(C)CC[C@H](OC(=O)CC(C)(C)C(=O)O)C(C)(C)[C@@H]5CC[C@]43C)[C@@H]12 [Example 2, 4-(((1R,3aS,5aR,5bR,7aR,9S,11aR,13aR,13bR)-3a-((2-(1,1-dioxido-4-thiomorpholinyl)ethyl)amino)-1-isopropenyl-5a,5b,8,8,11a-pentamethylicosahydro-1H-cyclopenta[a]chrysen-9-yl)oxy)-2,2-dimethyl-4-oxobutanoic acid] | < 0.1 µM
C=C(C)[C@@H]1CC[C@]2(NCCN3CCS(=O)(=O)CC3)CC[C@]3(C)[C@H](CC[C@@H]4[C@@]5(C)CC[C@H](OC(=O)CC(C)(C)CC(=O)O)C(C)(C)[C@@H]5CC[C@]43C)[C@@H]12 [Example 3, 5-(((1R,3aS,5aR,5bR,7aR,9aR,9S,11aR,3aR,13bR)-3a-((2-(1,1-dioxido-4-thiomorpholinyl)ethyl)amino)-1-isopropenyl-5a,5b,8,8,11a-pentamethylicosahydro-1H-cyclopenta[a]chrysen-9-yl)oxy)-3,3-dimethyl-5-oxopentanoic acid] | < 0.1 µM
C=C(C)[C@@H]1CC[C@]2(NCCN3CCOCC3)CC[C@]3(C)[C@H](CC[C@@H]4[C@@]5(C)CC[C@H](OC(=O)C(C)(C)CC(=O)O)C(C)(C)[C@@H]5CC[C@]43C)[C@@H]12 [Example 4, 3,3-dimethyl-4-oxo-4-((1R,3aS,5aR,5bR,7aR,9S,11aR,13aR,13bR)-5a,5b,8,8,11a-pentamethyl-3a-(2-morpholinoethylamino)-1-(prop-1-en-2-yl)icosahydro-1H-cyclopenta[a]chrysen-9-yloxy)butanoic acid] | < 0.1 µM
C=C(C)[C@@H]1CC[C@]2(NCCN3CCOCC3)CC[C@]3(C)[C@H](CC[C@@H]4[C@@]5(C)CC[C@H](OC(=O)CC(C)(C)C(=O)O)C(C)(C)[C@@H]5CC[C@]43C)[C@@H]12 [Example 5, 2,2-dimethyl-4-oxo-4-((1R,3aS,5aR,5bR,7aR,9S,11aR,13aR,13bR)-5a,5b,8,8,11a-pentamethyl-3a-(2-morpholinoethylamino)-1-(prop-1-en-2-yl)icosahydro-1H-cyclopenta[a]chrysen-9-yloxy)butanoic acid] | < 0.1 µM
CC(C)[C@@H]1CC[C@]2(NCCN3CCS(=O)(=O)CC3)CC[C@]3(C)[C@H](CC[C@@H]4[C@@]5(C)CC[C@H](OC(=O)CC(C)(C)C(=O)O)C(C)(C)[C@@H]5CC[C@]43C)[C@@H]12 [Example 6, 4-(((1S,3aS,5aR,5bR,7aR,9S,11aR,13aR,13bR)-3a-((2-(1,1-dioxido-4-thiomorpholinyl)ethyl)amino)-1-isopropyl-5a,5b,8,8,11a-pentamethylicosahydro-1H-cyclopenta[a]chrysen-9-yl)oxy)-2,2-dimethyl-4-oxobutanoic acid] | < 0.1 µM
CC(C)[C@@H]1CC[C@]2(NCCN3CCS(=O)(=O)CC3)CC[C@]3(C)[C@H](CC[C@@H]4[C@@]5(C)CC[C@H](OC(=O)CC(C)(C)CC(=O)O)C(C)(C)[C@@H]5CC[C@]43C)[C@@H]12 [Example 7, 5-(((1S,3aS,5aR,5bR,7aR,9aR,9S,11aR,3aR,13bR)-3a-((2-(1,1-dioxido-4-thiomorpholinyl)ethyl)amino)-1-isopropyl-5a,5b,8,8,11a-pentamethylicosahydro-1H-cyclopenta[a]chrysen-9-yl)oxy)-3,3-dimethyl-5-oxopentanoic acid] | < 0.1 µM
C=C(C)[C@@H]1CC[C@]2(NCCN3CCC(S(C)(=O)=O)CC3)CC[C@]3(C)[C@H](CC[C@@H]4[C@@]5(C)CC[C@H](OC(=O)C(C)(C)CC(=O)O)C(C)(C)[C@@H]5CC[C@]43C)[C@@H]12 [Example 8, 3,3-dimethyl-4-oxo-4-(((1R,3aS,5aR,5bR,7aR,9S,11aR,13aR,13bR)-5a,5b,8,8,11a-pentamethyl-3a-((2-(4-(methylsulfonyl)piperidin-1-yl)ethyl)amino)-1-(prop-1-en-2-yl)icosahydro-1H-cyclopenta[a]chrysen-9-yl)oxy)butanoic acid] | < 0.1 µM
C=C(C)[C@@H]1CC[C@]2(NCCN3CCC(S(C)(=O)=O)CC3)CC[C@]3(C)[C@H](CCC4[C@@]5(C)CC[C@H](OC(=O)CC(C)(C)C(=O)O)C(C)(C)[C@@H]5CC[C@]43C)[C@@H]12 (stereo partly drawn) [Example 9, 2,2-dimethyl-4-oxo-4-(((1R,3aS,5aR,5bR,7aR,9S,11aR,13aR,13bR)-5a,5b,8,8,11a-pentamethyl-3a-((2-(4-(methylsulfonyl)piperidin-1-yl)ethyl)amino)-1-(prop-1-en-2-yl)icosahydro-1H-cyclopenta[a]chrysen-9-yl)oxy)butanoic acid] | < 0.1 µM
C=C(C)[C@@H]1CC[C@]2(NCCN(C)C)CC[C@]3(C)[C@H](CC[C@@H]4[C@@]5(C)CC[C@H](OC(=O)CC(C)(C)C(=O)O)C(C)(C)[C@@H]5CC[C@]43C)[C@@H]12 [Example 10, 4-(((1R,3aS,5aR,5bR,7aR,9S,11aR,13aR,13bR)-3a-((2-(dimethylamino)ethyl)amino)-5a,5b,8,8,11a-pentamethyl-1-(prop-1-en-2-yl)icosahydro-1H-cyclopenta[a]chrysen-9-yl)oxy)-2,2-dimethyl-4-oxobutanoic acid] | < 0.1 µM
C=C(C)[C@@H]1CC[C@]2(NCCN3CCN(S(C)(=O)=O)CC3)CC[C@]3(C)[C@H](CC[C@@H]4[C@@]5(C)CC[C@H](OC(=O)CC(C)(C)C(=O)O)C(C)(C)[C@@H]5CC[C@]43C)[C@@H]12 [Example 11, 2,2-dimethyl-4-oxo-4-(((1R,3aS,5aR,5bR,7aR,9S,11aR,11bR,13aR,13bR)-5a,5b,8,8,11a-pentamethyl-3a-((2-(4-(methylsulfonyl)piperazin-1-yl)ethyl)amino)-1-(prop-1-en-2-yl)icosahydro-1H-cyclopenta[a]chrysen-9-yl)oxy)butanoic acid] | < 0.1 µM
